Structures are written as SMILES. Several values for one entry are separate records, joined by “and”; a condition that tells them apart may be missing. Identical values can stand only once.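 In this assay, cells in 96-well plates receive the compound at five concentrations for 48 hours. Endpoints are linearly interpolated between the surrounding concentrations. The concentration for 50% growth inhibition is given as GI50. TGI: concentration producing complete growth inhibition.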

Common to all, as to assay: NCI anticancer screen, dose series, 48 h
Assay [1] concerns LOX IMVI melanoma.
In assay [2] the test system is 786-0 renal.
Assay [3] has as its system NCI/ADR-RES ovarian.
The test system of assay [4] is OVCAR-3 ovarian.
For assay [5], the system named is HOP-62 NSCLC.
Assay [6] deals with NCI-H522 lung.
The test system of assay [7] is HCT-116 colon.
Assay [8] deals with SF-295 CNS.
Assay [9] deals with MCF7 breast.
The test system of assay [10] is SK-MEL-5 melanoma.

For `CC([C@H]1CCC2C3CCC4C(=O)C(NC=O)=CC[C@]4(C)C3CC[C@@]21C)N(C)C` (some centres not stated), the GI50 is 1.78 µM in [1]; 2.48 µM in assay [2]; 6.8 µM in assay [3]; 2.7 µM in assay [4]; 2.01 µM in [5]; 8.2 µM in [6]. The GI50 in assay [7] is 1.42 µM; in [8] it was 2.11 µM; in assay [9], 2.43 µM; in assay [10], 1.54 µM. For the same compound, the TGI in [1] was 4.02 µM; in assay [2], 7.76 µM; in assay [3] it was 27.2 µM; in assay [4] it was 10.2 µM; in [5], 4.56 µM; in assay [6] it was above 31.2 µM. Also, the TGI in assay [7] was 3.95 µM; in [8], 5.67 µM; in assay [9], 14.1 µM; in assay [10] it was 3.04 µM.
On to `COC(=O)C1=C(O)C(C(=O)OC)[C@@]2(O)[C@@H](C(=O)OC)C(c3ccccc3C(F)(F)F)C[C@@H]1[C@@H]2C(=O)OC` (some centres not stated), for which the GI50 in assay [2] was 4.49 µM; in assay [3], 3.78 µM; in assay [4], 1.69 µM; in [5] it was 20.4 µM; in assay [6], 16.8 µM; in [7] it was 6.34 µM. Further, the GI50 in assay [9] was 2.99 µM; in assay [10] it was 3.46 µM. In addition, the TGI in assay [2] turned out to be 16.4 µM; in assay [3] it was 16.8 µM; in [4], 4.14 µM; in assay [5], 36.4 µM; in assay [6], 33.2 µM; in assay [7], 18.8 µM. The results for the TGI in assay [9] and in assay [10] were 12.1 µM and 13.2 µM, respectively.
For the compound `COc1ccc(OC)c(-c2cc(-c3ccc(Cl)cc3)nn2-c2ccc(S(N)(=O)=O)cc2)c1`, the GI50 in [2] was 13.2 µM; in [3], 6.54 µM; in assay [4], 22.1 µM; in assay [6], 7.99 µM; in [8], 17.2 µM; in [9] it was 3.9 µM. The GI50 in assay [10] is 14.5 µM. The TGI in assay [2] was 27.1 µM; in [3] it was 22.2 µM; in [4] it was 39.8 µM; in assay [6] it was 45.3 µM; in assay [8], 44.4 µM; in assay [9], 26.2 µM. Further, in assay [10], the TGI is 35.4 µM.
For the compound `NC(=O)c1ncn(C2CCC(CP(=O)(O)O)C2)c1N` (configuration not stated), the TGI in [1], in assay [2], in [3], in assay [4], in [5] and in assay [7] was above 100 µM throughout. For the same compound, the TGI in [8], in assay [9] and in assay [10] was above 100 µM throughout.
For `CN1CCN(c2nc(C3=C(c4c[nH]c5ccccc45)C(=O)NC3=O)c3ccccc3n2)CC1`, the GI50 in assay [1] was 13.1 µM and 17.3 µM; in [2], 15.7 µM and 18.3 µM; in assay [3] it was 25.4 µM; in assay [4] it was 16.2 µM and 19.4 µM; in assay [5], 13.6 µM and 19.8 µM; in [6], 11.3 µM and 15.1 µM. In addition, the GI50 is 10.3 µM and 9.78 µM in [7]; 12.2 µM and 19.6 µM in assay [8]; 10.1 µM and 16.6 µM in [9]; 11.2 µM and 12.6 µM in assay [10]. Further, the TGI in assay [1] is 24.5 µM and 36.4 µM; in assay [2], 39.6 µM and 36.9 µM; in assay [3], 65 µM; in assay [4], 44.8 µM and 41.6 µM; in assay [5], 65 µM and 42.9 µM; in assay [6], 23.7 µM and 32.9 µM. Also, the TGI in assay [7] is 31.9 µM and 37.9 µM; in assay [8] it was 25.9 µM and 37.8 µM; in assay [9], 27.9 µM and 40 µM; in assay [10], 20.3 µM and 26 µM.
Regarding `COc1cccc(-n2cnc3c(N/N=C/c4ccncc4)ncnc32)c1`, the GI50 in assay [1] was 12.8 µM; in assay [2] it was 19.5 µM; in assay [3], above 25 µM; in assay [4], above 20.8 µM; in assay [5], above 25 µM; in assay [6], above 14.6 µM. For the same compound, the GI50 in assay [7] was 15.1 µM; in assay [8], above 25 µM; in assay [9], above 25 µM; in assay [10], 10.5 µM. In addition, the TGI in [1], in assay [2], in assay [3], in assay [4], in [5] and in [6] was above 25 µM throughout. In addition, the TGI in assay [7], in [8], in assay [9] and in assay [10] was above 25 µM in each case.
In the case of `COc1cc2c(cc1OC)[C@@H]1[C@H](C2=O)c2ccc([N+](=O)[O-])cc2C(=O)N1CCCBr`, the GI50 in assay [1] was 0.2 µM; in assay [2], below 0.0489 µM; in [5], below 0.0277 µM; in assay [6] it was 0.574 µM; in assay [7], below 0.01 µM; in assay [9], below 0.01 µM. For the same compound, the GI50 in assay [10] is below 0.01 µM. In addition, the TGI was 0.81 µM in [1]; 0.285 µM in assay [2]; 9.93 µM in [3]; 0.748 µM in assay [4]; 0.709 µM in assay [5]; 29.4 µM in assay [6]. Moreover, the TGI in assay [7] was 0.0133 µM; in assay [9], 0.284 µM; in assay [10] it was 0.123 µM.
With `COc1cc(C2CC(c3ccc(C)cc3)=NN2C(C)=O)ccc1Oc1ccnc2cc(Cl)ccc12` (configuration not stated), the GI50 in assay [2] is 1.17 µM; in [4] it was above 100 µM; in assay [5], 4.3 µM; in assay [6], above 100 µM; in [7] it was 0.681 µM; in [8], 2.52 µM. Also, the GI50 in [9] and in [10] was above 100 µM throughout. Also, the TGI in assay [2] is 10.4 µM; in [4] it was above 100 µM; in assay [5], above 100 µM; in [6], above 100 µM; in [7], above 100 µM; in [8] it was above 100 µM. Also, the TGI in assay [9] and in [10] was above 100 µM each time.
As to `O=C(CCCCCn1c2ccccc2c2c3c(c4c5ccccc5[nH]c4c21)C(=O)N(O)C3=O)N1CCOCC1`, the GI50 in [1] is 1.05 µM; in assay [2], 1.99 µM; in assay [3] it was 5.93 µM; in assay [5] it was 2.77 µM; in [6], 1.38 µM; in assay [9] it was 1.41 µM. Besides, the GI50 in [10] is 1.64 µM. In addition, the TGI is 2.57 µM in [1]; 4.91 µM in assay [2]; above 100 µM in assay [3]; 6.74 µM in [5]; 3.14 µM in [6]; above 100 µM in [9]. In addition, the TGI in assay [10] was found to be 3.06 µM.
As for `COc1cc(OC)cc(-c2n[nH]nc2-c2ccc3c(c2)OCO3)c1`, the GI50 in assay [1] was 0.545 µM; in assay [2] it was 0.618 µM; in [3], 0.0849 µM; in assay [4] it was 0.0745 µM; in assay [5], 0.336 µM; in assay [7], 0.181 µM. The GI50 was 0.0989 µM in assay [8], 0.0768 µM in [9] and 0.168 µM in assay [10]. Moreover, the TGI in [1] is 87.1 µM; in assay [2] it was 63.5 µM; in assay [3] it was 24 µM; in assay [4] it was 0.378 µM; in assay [5], above 100 µM; in assay [7], 15.6 µM. For the same compound, the figures for the TGI in [8], in [9] and in assay [10] were 3.61 µM, above 100 µM and 11.9 µM, respectively.
With `COC(=O)C1=C(O)C(C(=O)OC)[C@@]2(O)[C@@H](C(=O)OC)C(c3ccc(OC(=O)C(Cc4ccccc4)NC(C)=O)cc3)C[C@@H]1[C@@H]2C(=O)OC` (some centres not stated), the GI50 in assay [1] was 18 µM; in [2], 18.3 µM; in assay [3] it was 60.7 µM; in assay [5], 22.5 µM; in [6], 28.3 µM; in assay [7], 20.6 µM. Besides, the figures for the GI50 in assay [8], in assay [9] and in assay [10] were 32.8 µM, 17 µM and 18 µM, respectively. The TGI in [1] is 32.2 µM; in assay [2], 43.5 µM; in assay [3], above 100 µM; in assay [5], 54.3 µM; in assay [6], above 100 µM; in assay [7], 45.1 µM. The TGI worked out at 69.3 µM in assay [8], 95.3 µM in [9] and 39.3 µM in assay [10].
As to `Nc1nc(Cl)cc2c1ncn2C1OC(CO)C(O)C1O` (configuration not stated), the GI50 in [1], in assay [2], in [3], in assay [4], in assay [5] and in assay [6] was above 100 µM throughout. In addition, the GI50 in assay [9] and in assay [10] was above 100 µM throughout. The TGI in assay [1], in [2], in [3], in assay [4], in assay [5] and in assay [6] was above 100 µM in each case. In addition, the TGI in [9] and in assay [10] was above 100 µM each time.
For the compound `CC(CC(C)[C@H]1CCC2[C@H]3C(CC[C@@]21C)[C@@]1(C)CCC(O)C[C@H]1C[C@@H]3O)C(=O)O` (some centres not stated), the TGI in assay [1], in assay [2], in [3], in [5], in assay [6] and in [7] was above 100 µM throughout. This compound registered a TGI in [9] above 100 µM.
`Cc1ccc(NC(=O)C(=O)C2C(=O)C3=C(CC2(C)C)NC2C=CC=CC2S3)c(C)c1` (configuration not stated): the TGI in assay [1], in [2], in assay [3], in [6], in assay [7] and in assay [8] was above 100 µM each time. The TGI in assay [9] and in assay [10] was above 100 µM throughout.
On to `C=CC[n+]1c(/C=C2\Sc3ccccc3N2C)sc(-c2ccccc2)c1-c1ccccc1`, for which the GI50 in assay [1] is 0.34 µM; in assay [2], 0.419 µM; in assay [3], 7.89 µM; in assay [5] it was 0.302 µM; in assay [6], 0.22 µM; in assay [7] it was 0.36 µM. In addition, the GI50 in assay [8] was 0.276 µM; in [9], 0.286 µM; in assay [10], 0.173 µM. Also, the TGI in [1] was found to be 1.54 µM; in assay [2] it was 11.1 µM; in assay [3], 61.7 µM; in assay [5], 4.75 µM; in [6], 0.76 µM; in assay [7], 11.5 µM. Also, the values for the TGI in [8], in [9] and in [10] were 0.903 µM, 1.77 µM and 0.32 µM, respectively.
Take `COc1ccc(-c2ccc(/C=N/n3cnn(CN4CCN(C)CC4)c3=S)o2)c([N+](=O)[O-])c1`: the GI50 in [1] is 23.3 µM; in assay [2], 19.6 µM; in assay [4], 26.7 µM; in assay [5] it was 34.1 µM; in assay [6], 45 µM; in [9], 28.7 µM. Moreover, the GI50 in assay [10] is 23.9 µM. The TGI in [1] was 66.8 µM; in [2], above 100 µM; in assay [4], 66.9 µM; in [5], above 100 µM; in [6], above 100 µM; in assay [9] it was 97.4 µM. The same compound gave a TGI in [10] of 62.7 µM.
`N=C(N)c1ccc(-c2ccc(-c3ccco3)o2)cc1`: the GI50 in [1] was 2.23 µM; in [2], 3.93 µM; in assay [3], 10.1 µM; in assay [4] it was 9.77 µM; in assay [5], 10.4 µM; in [6], 3.73 µM. The GI50 in assay [7] is 3.04 µM; in assay [9] it was 2.08 µM; in [10] it was 2.67 µM. The TGI worked out at 5.2 µM in assay [1]; 17.1 µM in assay [2]; 28.5 µM in assay [3]; 22.1 µM in assay [4]; 23 µM in [5]; 14.6 µM in [6]. For the same compound, the TGI was 10.3 µM in assay [7], 14.3 µM in assay [9] and 9.76 µM in assay [10].

The values above are taken from PubChem BioAssay (NCI).
